Tested on: Metabolism protein genes
Test: DNA chip mRNA expression in yeast, metabolism protein genes (Table 7)
Type: cell-based, Saccharomyces cerevisiae S288C
Description: Yeast (Saccharomyces cerevisiae S288C (α SUC2mal mel gap2 CUP1)) were incubated at 25° C. on YPD medium (yeast extract 1%, polypepton 2%, glucose 2%). One of toxic chemical substances was added to the cells at logarithmic growth phase, and the cells were further incubated for two hours. Cells were cultured without any chemical substance in the same condition, and were used as control. Concentrations of the chemical substances were defined to inhibit the growth of the yeast but not lead to death.
After completion of the incubation, the culture was centrifuged to collect the cells. To the cells, sodium acetate buffer (50 mM sodium acetate, 10 mM EDTA, 1% SDS) was added, and the mixture was shaken at 65° C. for five minutes, followed by returning to room temperature, and obtaining the supernatant, of which the procedures were repeated two times. To the supernatant, ½ amount of a solution of phenol/chloroform was added, and the mixture was centrifuged to give a supernatant, which was added with an equal amount of chloroform, and the mixture was centrifuged to give a supernatant. To the supernatant, an equal amount of isopropanol containing 0.3 M sodium acetate was added, and the mixture was allowed to stand at room temperature for 30 minutes, after which the mixture was centrifuged to give a sediment of the whole RNAs. Seventy % ethanol was added to the sediment, and the mixture was again centrifuged to give a sediment, which was then dried and dissolved in water. mRNA was isolated from the whole RNAs as followings. In view of the fact that a poly A chain is attached to the 3′ terminus of mRNA, a polynucleotide having a poly T structure which was immobilized on the surface of latex beads was used to trap the mRNA, and then the mRNA was washed and eluted with spine column (Oligotex-dT30<Super>mRNA Purification Kit, Takara). Reverse transcription of the mRNA was conducted with a reverse transcriptase (Super Script II Reverse Transcriptase; catalogue No. 18064-014, GibcoBRL) using fluorescence-labeled nucleotides to give cDNAs that were introduced with Cy3-dUTP or Cy5-dUTP during the reverse transcription.
The labeled cDNAs were dissolved in TE buffer (10mM Tris-HCl/1 mM EDTA, pH8.0), and the solution was dropped on the DNA chip containing the whole genes of yeast (DNA Chip Research Inc. Japan) so that the cDNAs were hybridized on the DNA chip at 65° C. for over 12 hours. The fluoresces intensity of the DNA chip was read with a scanner, and the ratio relative to the fluorescence intensity resulting from the absence of chemical substance was estimated as the following, which is shown in Tables 1 to 9: […]

O=[N+]([O-])c1cc[n+]([O-])c2ccccc12 [(5), 4-nitroquinolin-N-oxide]
1.4: The level of expressed mRNA in the presence of chemical substance/The level of expressed mRNA in the absence of chemical substance (yeast gene YAL038W) | The level of expressed mRNA in the presence of chemical substance/The level of expressed mRNA in the absence of chemical substance (yeast gene YBR029C) | The level of expressed mRNA in the presence of chemical substance/The level of expressed mRNA in the absence of chemical substance (yeast gene YCL064C) | The level of expressed mRNA in the presence of chemical substance/The level of expressed mRNA in the absence of chemical substance (yeast gene YCR098C)
0.7: level of expressed mRNA in the presence/in the absence of chemical substance (yeast gene YBR003W) | The level of expressed mRNA in the presence of chemical substance/The level of expressed mRNA in the absence of chemical substance (yeast gene YBR222C) | The level of expressed mRNA in the presence of chemical substance/The level of expressed mRNA in the absence of chemical substance (yeast gene YCL009C) | level of expressed mRNA in the presence/in the absence of chemical substance (yeast gene YDR483W) | The level of expressed mRNA in the presence of chemical substance/The level of expressed mRNA in the absence of chemical substance (yeast gene YDR497C) | The level of expressed mRNA in the presence of chemical substance/The level of expressed mRNA in the absence of chemical substance (yeast gene YER178W) | The level of expressed mRNA in the presence of chemical substance/The level of expressed mRNA in the absence of chemical substance (yeast gene YGL209W) | The level of expressed mRNA in the presence of chemical substance/The level of expressed mRNA in the absence of chemical substance (yeast gene YJL068C) | level of expressed mRNA in the presence/in the absence of chemical substance (yeast gene YJL167W)
0.6: The level of expressed mRNA in the presence of chemical substance/The level of expressed mRNA in the absence of chemical substance (yeast gene YAL012W) | The level of expressed mRNA in the presence of chemical substance/The level of expressed mRNA in the absence of chemical substance (yeast gene YER053C) | level of expressed mRNA in the presence/in the absence of chemical substance (yeast gene YGR204W) | The level of expressed mRNA in the presence of chemical substance/The level of expressed mRNA in the absence of chemical substance (yeast gene YJR137C)
1.2: level of expressed mRNA in the presence/in the absence of chemical substance (yeast gene YDR073W) | level of expressed mRNA in the presence/in the absence of chemical substance (yeast gene YEL063C) | The level of expressed mRNA in the presence of chemical substance/The level of expressed mRNA in the absence of chemical substance (yeast gene YER026C) | The level of expressed mRNA in the presence of chemical substance/The level of expressed mRNA in the absence of chemical substance (yeast gene YFR047C) | level of expressed mRNA in the presence/in the absence of chemical substance (yeast gene YGL115W) | level of expressed mRNA in the presence/in the absence of chemical substance (yeast gene YGR096W) | The level of expressed mRNA in the presence of chemical substance/The level of expressed mRNA in the absence of chemical substance (yeast gene YJL219W)
0.8: The level of expressed mRNA in the presence of chemical substance/The level of expressed mRNA in the absence of chemical substance (yeast gene YBR023C) | level of expressed mRNA in the presence/in the absence of chemical substance (yeast gene YDR277C) | level of expressed mRNA in the presence/in the absence of chemical substance (yeast gene YDR284C) | level of expressed mRNA in the presence/in the absence of chemical substance (yeast gene YER120W) | level of expressed mRNA in the presence/in the absence of chemical substance (yeast gene YGR191W) | The level of expressed mRNA in the presence of chemical substance/The level of expressed mRNA in the absence of chemical substance (yeast gene YGR194C) | level of expressed mRNA in the presence/in the absence of chemical substance (yeast gene YGR288W) | level of expressed mRNA in the presence/in the absence of chemical substance (yeast gene YIL006W) | The level of expressed mRNA in the presence of chemical substance/The level of expressed mRNA in the absence of chemical substance (yeast gene YIL107C) | level of expressed mRNA in the presence/in the absence of chemical substance (yeast gene YJL216C)
1.3: level of expressed mRNA in the presence/in the absence of chemical substance (yeast gene YDR345C) | The level of expressed mRNA in the presence of chemical substance/The level of expressed mRNA in the absence of chemical substance (yeast gene YDR516C) | level of expressed mRNA in the presence/in the absence of chemical substance (yeast gene YER015W) | The level of expressed mRNA in the presence of chemical substance/The level of expressed mRNA in the absence of chemical substance (yeast gene YER096W) | level of expressed mRNA in the presence/in the absence of chemical substance (yeast gene YFL011W) | The level of expressed mRNA in the presence of chemical substance/The level of expressed mRNA in the absence of chemical substance (yeast gene YGL248W) | The level of expressed mRNA in the presence of chemical substance/The level of expressed mRNA in the absence of chemical substance (yeast gene YGR055W) | The level of expressed mRNA in the presence of chemical substance/The level of expressed mRNA in the absence of chemical substance (yeast gene YHR174W) | The level of expressed mRNA in the presence of chemical substance/The level of expressed mRNA in the absence of chemical substance (yeast gene YIL045W) | The level of expressed mRNA in the presence of chemical substance/The level of expressed mRNA in the absence of chemical substance (yeast gene YIL155C)
1.5: The level of expressed mRNA in the presence of chemical substance/The level of expressed mRNA in the absence of chemical substance (yeast gene YDR502C) | The level of expressed mRNA in the presence of chemical substance/The level of expressed mRNA in the absence of chemical substance (yeast gene YER069W) | level of expressed mRNA in the presence/in the absence of chemical substance (yeast gene YGL012W) | The level of expressed mRNA in the presence of chemical substance/The level of expressed mRNA in the absence of chemical substance (yeast gene YHR111W)
0.9: level of expressed mRNA in the presence/in the absence of chemical substance (yeast gene YBR011C) | The level of expressed mRNA in the presence of chemical substance/The level of expressed mRNA in the absence of chemical substance (yeast gene YBR183W) | level of expressed mRNA in the presence/in the absence of chemical substance (yeast gene YCR034W) | The level of expressed mRNA in the presence of chemical substance/The level of expressed mRNA in the absence of chemical substance (yeast gene YCR048W) | The level of expressed mRNA in the presence of chemical substance/The level of expressed mRNA in the absence of chemical substance (yeast gene YDR019C) | level of expressed mRNA in the presence/in the absence of chemical substance (yeast gene YDR050C) | level of expressed mRNA in the presence/in the absence of chemical substance (yeast gene YDR178W) | level of expressed mRNA in the presence/in the absence of chemical substance (yeast gene YDR408C) | The level of expressed mRNA in the presence of chemical substance/The level of expressed mRNA in the absence of chemical substance (yeast gene YFL056C) | The level of expressed mRNA in the presence of chemical substance/The level of expressed mRNA in the absence of chemical substance (yeast gene YFL057C) | The level of expressed mRNA in the presence of chemical substance/The level of expressed mRNA in the absence of chemical substance (yeast gene YGR256W) | level of expressed mRNA in the presence/in the absence of chemical substance (yeast gene YHR025W) | The level of expressed mRNA in the presence of chemical substance/The level of expressed mRNA in the absence of chemical substance (yeast gene YIL154C) | The level of expressed mRNA in the presence of chemical substance/The level of expressed mRNA in the absence of chemical substance (yeast gene YIR036C) | The level of expressed mRNA in the presence of chemical substance/The level of expressed mRNA in the absence of chemical substance (yeast gene YJL088W) | The level of expressed mRNA in the presence of chemical substance/The level of expressed mRNA in the absence of chemical substance (yeast gene YJL172W) | level of expressed mRNA in the presence/in the absence of chemical substance (yeast gene YJR077C)
1.0: level of expressed mRNA in the presence/in the absence of chemical substance (yeast gene YBR020W) | level of expressed mRNA in the presence/in the absence of chemical substance (yeast gene YDR400W) | The level of expressed mRNA in the presence of chemical substance/The level of expressed mRNA in the absence of chemical substance (yeast gene YFL014W) | The level of expressed mRNA in the presence of chemical substance/The level of expressed mRNA in the absence of chemical substance (yeast gene YFL031W) | The level of expressed mRNA in the presence of chemical substance/The level of expressed mRNA in the absence of chemical substance (yeast gene YGL022W) | The level of expressed mRNA in the presence of chemical substance/The level of expressed mRNA in the absence of chemical substance (yeast gene YGR037C) | The level of expressed mRNA in the presence of chemical substance/The level of expressed mRNA in the absence of chemical substance (yeast gene YGR282C) | The level of expressed mRNA in the presence of chemical substance/The level of expressed mRNA in the absence of chemical substance (yeast gene YHR137W) | The level of expressed mRNA in the presence of chemical substance/The level of expressed mRNA in the absence of chemical substance (yeast gene YHR176W) | The level of expressed mRNA in the presence of chemical substance/The level of expressed mRNA in the absence of chemical substance (yeast gene YIL167W) | level of expressed mRNA in the presence/in the absence of chemical substance (yeast gene YJL121C)
1.1: The level of expressed mRNA in the presence of chemical substance/The level of expressed mRNA in the absence of chemical substance (yeast gene YDR380W) | level of expressed mRNA in the presence/in the absence of chemical substance (yeast gene YER081W) | The level of expressed mRNA in the presence of chemical substance/The level of expressed mRNA in the absence of chemical substance (yeast gene YFL030W) | The level of expressed mRNA in the presence of chemical substance/The level of expressed mRNA in the absence of chemical substance (yeast gene YGL126W) | level of expressed mRNA in the presence/in the absence of chemical substance (yeast gene YGL205W) | The level of expressed mRNA in the presence of chemical substance/The level of expressed mRNA in the absence of chemical substance (yeast gene YIR034C)
1.6: The level of expressed mRNA in the presence of chemical substance/The level of expressed mRNA in the absence of chemical substance (yeast gene YAR071W) | The level of expressed mRNA in the presence of chemical substance/The level of expressed mRNA in the absence of chemical substance (yeast gene YBR256C) | The level of expressed mRNA in the presence of chemical substance/The level of expressed mRNA in the absence of chemical substance (yeast gene YBR299W) | level of expressed mRNA in the presence/in the absence of chemical substance (yeast gene YDR123C) | The level of expressed mRNA in the presence of chemical substance/The level of expressed mRNA in the absence of chemical substance (yeast gene YIR031C) | level of expressed mRNA in the presence/in the absence of chemical substance (yeast gene YJR143C)
1.7: level of expressed mRNA in the presence/in the absence of chemical substance (yeast gene YCR010C) | The level of expressed mRNA in the presence of chemical substance/The level of expressed mRNA in the absence of chemical substance (yeast gene YJL031C)
1.8: level of expressed mRNA in the presence/in the absence of chemical substance (yeast gene YHR210C)
1.9: The level of expressed mRNA in the presence of chemical substance/The level of expressed mRNA in the absence of chemical substance (yeast gene YJL099W)

From patent US8192962B2, “Processes for detecting toxic substances” (Daikin Industries, Ltd., priority 2001, dated 2012)
